Patent publication US20160213849A1, “CONDITIONAL REQUIRED PRIMING” (SANOFI-AVENTIS DEUTSCHLAND GMBH, priority 2013, published 2016)
“And” between values parts separate entries of the source, which are not always exact repeats. Identical values can stand only once.

Key:
Assay type in all cases: cell-based
Aspergillus niger = test: preservative efficacy test of inoculated m-cresol test solutions; conditions: 1.8 mg/ml m-cresol
Protocol: (§1) In a first experiment, the minimum m-cresol concentration necessary to ensure microbiological integrity was determined.
(§2) Test solutions with m-cresol concentrations of between 2.7 mg/ml down to 1.5 mg/ml were inoculated with an inoculum of different bacteria and fungi/yeast and stored for 28 days. During the test, the bacteria and fungi/yeast population of the test solutions were repeatedly analyzed.

Candida albicans = test: as above; conditions: 1.8 mg/ml m-cresol
Protocol: as §1, §2

Escherichia coli = test: as above; conditions: 1.8 mg/ml m-cresol
Protocol: as §1, §2

Staphilococcus aureus = test: as above; conditions: 1.8 mg/ml m-cresol
Protocol: as §1, §2

Pseudomonas aeruginosa = test: as above; design: unit not given beside the values; conditions: 1.8 mg/ml m-cresol
Protocol: as §1, §2

bacteria and fungi/yeast = test: comparison of test solution results to Ph. Eur. and USP criteria
Protocol: The Ph. Eur. and USP criteria are given in table 1, wherein the numbers designate the required order of magnitude in CFU (colony forming unit) decrease as a function of time since the time of contamination (T0).
as §2
The analysis presented in table 2 for the 1.8 mg/ml m-cresol test solution was also performed for the test solutions with different m-cresol contents. The results were then compared to the Ph.Eur. and USP criteria to determine, which m-cresol contents are sufficient to fulfil these criteria.

Cc1cccc(O)c1 [m-cresol]
Aspergillus niger content (Aspergillus niger; 7 d): 15 | Aspergillus niger content (Aspergillus niger; 14 d): <10 | Aspergillus niger content (Aspergillus niger; 28 d): <10 | Aspergillus niger content (Aspergillus niger; Start (T0)): 250000 | Candida albicans content (Candida albicans; 7 d): 100 | Candida albicans content (Candida albicans; 14 d): 30 | Candida albicans content (Candida albicans; 28 d): <10 | Candida albicans content (Candida albicans; Start (T0)): 400000 | Escherichia coli content (Escherichia coli; 6 h): 55 | Escherichia coli content (Escherichia coli; 24 h): <10 | Escherichia coli content (Escherichia coli; 7 d): <10 | Escherichia coli content (Escherichia coli; 14 d): <10 | Escherichia coli content (Escherichia coli; 28 d): <10 | Escherichia coli content (Escherichia coli; Start (T0)): 190000 | Staphilococcus aureus content (Staphilococcus aureus; 6 h): 2200 | Staphilococcus aureus content (Staphilococcus aureus; 24 h): <10 | Staphilococcus aureus content (Staphilococcus aureus; 7 d): <10 | Staphilococcus aureus content (Staphilococcus aureus; 14 d): <10 | Staphilococcus aureus content (Staphilococcus aureus; 28 d): <10 | Staphilococcus aureus content (Staphilococcus aureus; Start (T0)): 170000 | Pseudomonas aeruginosa content (Pseudomonas aeruginosa; 6 h): <10 | Pseudomonas aeruginosa content (Pseudomonas aeruginosa; 24 h): <10 | Pseudomonas aeruginosa content (Pseudomonas aeruginosa; 7 d): <10 | Pseudomonas aeruginosa content (Pseudomonas aeruginosa; 14 d): <10 | Pseudomonas aeruginosa content (Pseudomonas aeruginosa; 28 d): <10 | Pseudomonas aeruginosa content (Pseudomonas aeruginosa; Start (T0)): 23000 | m-cresol content still enough to fulfil both the Ph.Eur. criterion A and the USP criteria (bacteria and fungi/yeast; conclusion of first experiment): 2.1 mg/mL and 1.8 mg/mL | m-cresol content down to which the USP criteria are fulfilled (bacteria and fungi/yeast; lowest content tested 1.5 mg/ml): 1.5 mg/mL
